# Assay results published in patent US7427620B2, “Azole derivative useful as antifungal agents with reduced interaction with metabolic cytochromes” (Italfarmaco SPA, priority 2003, dated 2008).
# Legend:
# [1] = system: Candida albicans; test: Antifungal activity, liquid phase microdilution (NCCLS M27/M38-P); type: cell-based
# Protocol: (§1) Experiment A: Antifungal Activity of Compounds of the Formula (I)
# (§2) The antifungal activity of the compounds of the formula (I) was determined using various strains of yeast and filamentous fungi. […] Table no.
# [2] = system: Candida glabrata; test: as above; type: cell-based; details: Candida glabrata strain 02-0902
# Protocol: as §1, §2
# [3] = system: Candida parapsilosis; test: as above; type: cell-based; details: Candida parapsilosis strain ATCC22019
# Protocol: as §1, §2
# [4] = system: Aspergillus fumigatus; test: as above; type: cell-based; parameters: IC50 (minimum concentration to bring about 50% inhibition): unit not given here
# Protocol: as §1, §2
# [5] = target: T1, CYP1A2 (Homo sapiens, UniProt P05177); test: Inhibition of human cytochromes, fluorescent substrates; type: in vitro ADME; details: isoenzyme (Gentest), 37° C.
# T1 construct: purchased Gentest
# T1 sequence (P05177 1-516): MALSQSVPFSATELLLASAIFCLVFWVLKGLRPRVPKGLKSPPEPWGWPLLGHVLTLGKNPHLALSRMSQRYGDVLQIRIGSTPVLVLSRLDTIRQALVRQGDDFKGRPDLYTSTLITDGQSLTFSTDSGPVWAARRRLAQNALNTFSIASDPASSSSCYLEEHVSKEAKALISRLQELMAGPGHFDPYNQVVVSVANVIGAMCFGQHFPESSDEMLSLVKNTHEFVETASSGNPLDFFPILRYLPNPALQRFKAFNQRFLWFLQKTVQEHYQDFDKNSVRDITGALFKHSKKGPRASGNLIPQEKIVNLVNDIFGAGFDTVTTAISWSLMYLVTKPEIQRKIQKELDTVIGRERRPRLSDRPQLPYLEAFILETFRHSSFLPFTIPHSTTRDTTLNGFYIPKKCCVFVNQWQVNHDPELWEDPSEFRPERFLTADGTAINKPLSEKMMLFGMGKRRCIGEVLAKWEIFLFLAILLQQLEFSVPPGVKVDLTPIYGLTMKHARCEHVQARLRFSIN
# Protocol: (§3) Experiment B: Inhibition of Human Cytochromes by Compounds of the Formula (I)
# (§4) Inhibition of the enzymatic activity of the most significant isoforms of human cytochromes by the compounds of the formula (I) was measured by using specific substrates which become fluorescent as a result of the metabolic action of a particular cytochrome isoform. The individual isoenzymes (Gentest) and the respective substrates were incubated in 96 well plates in buffer containing […] at 37° C. in the presence or absence of the compound under investigation. […] The degree of inhibition of each individual isoenzyme by known inhibitors was also assessed as a positive control.
# [6] = target: T2, CYP2C19 (Homo sapiens, UniProt P33261); test: as above; type: in vitro ADME; details: isoenzyme (Gentest), 37° C.
# T2 construct: purchased Gentest
# T2 sequence (P33261 whole entry): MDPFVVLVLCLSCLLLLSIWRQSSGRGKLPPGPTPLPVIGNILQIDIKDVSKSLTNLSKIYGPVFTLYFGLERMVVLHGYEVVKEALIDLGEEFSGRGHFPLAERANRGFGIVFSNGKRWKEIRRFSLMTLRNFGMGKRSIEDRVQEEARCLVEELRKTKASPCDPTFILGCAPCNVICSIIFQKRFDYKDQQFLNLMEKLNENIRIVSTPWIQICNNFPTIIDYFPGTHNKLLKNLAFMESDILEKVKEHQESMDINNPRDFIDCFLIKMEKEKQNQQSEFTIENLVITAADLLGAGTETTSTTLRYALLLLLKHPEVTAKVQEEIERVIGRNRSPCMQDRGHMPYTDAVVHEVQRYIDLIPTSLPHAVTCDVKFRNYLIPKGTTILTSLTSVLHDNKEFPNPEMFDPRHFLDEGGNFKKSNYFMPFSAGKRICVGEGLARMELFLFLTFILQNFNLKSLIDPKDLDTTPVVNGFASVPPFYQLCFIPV
# Protocol: as §3, §4
# [7] = target: T3, CYP2C9 (Homo sapiens, UniProt P11712); test: as above; type: in vitro ADME; details: isoenzyme (Gentest), 37° C.
# T3 construct: purchased Gentest
# T3 sequence (P11712 whole entry): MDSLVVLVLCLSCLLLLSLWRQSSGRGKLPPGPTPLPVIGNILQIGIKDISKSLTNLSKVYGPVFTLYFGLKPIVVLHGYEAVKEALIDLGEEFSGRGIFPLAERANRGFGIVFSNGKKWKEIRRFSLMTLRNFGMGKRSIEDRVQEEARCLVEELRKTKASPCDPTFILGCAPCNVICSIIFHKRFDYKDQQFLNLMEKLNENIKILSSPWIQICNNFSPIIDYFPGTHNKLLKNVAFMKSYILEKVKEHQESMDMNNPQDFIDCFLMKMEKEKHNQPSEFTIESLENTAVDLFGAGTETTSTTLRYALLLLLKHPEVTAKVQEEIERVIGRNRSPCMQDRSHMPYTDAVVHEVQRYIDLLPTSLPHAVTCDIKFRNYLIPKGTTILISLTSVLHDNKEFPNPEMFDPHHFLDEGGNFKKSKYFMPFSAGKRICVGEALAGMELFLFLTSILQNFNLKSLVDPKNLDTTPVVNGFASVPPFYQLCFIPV
# Protocol: as §3, §4
# [8] = target: T4, CYP2D6 (Homo sapiens, UniProt P10635); test: as above; type: in vitro ADME; details: isoenzyme (Gentest), 37° C.
# T4 construct: purchased Gentest
# T4 sequence (P10635 whole entry): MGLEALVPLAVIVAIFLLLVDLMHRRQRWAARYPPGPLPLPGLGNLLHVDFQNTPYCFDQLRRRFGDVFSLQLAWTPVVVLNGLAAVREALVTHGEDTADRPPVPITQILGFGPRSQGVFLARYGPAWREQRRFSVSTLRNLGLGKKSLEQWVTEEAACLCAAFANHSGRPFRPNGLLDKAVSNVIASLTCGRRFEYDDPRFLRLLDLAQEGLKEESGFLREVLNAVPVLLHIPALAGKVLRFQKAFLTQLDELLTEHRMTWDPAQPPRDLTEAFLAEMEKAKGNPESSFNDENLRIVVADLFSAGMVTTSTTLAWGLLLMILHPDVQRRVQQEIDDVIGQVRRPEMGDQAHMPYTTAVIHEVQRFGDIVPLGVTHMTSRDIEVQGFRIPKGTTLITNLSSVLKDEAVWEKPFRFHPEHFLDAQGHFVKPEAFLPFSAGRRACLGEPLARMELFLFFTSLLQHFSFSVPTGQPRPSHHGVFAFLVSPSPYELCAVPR
# Protocol: as §3, §4
# [9] = target: T5, CYP3A4 (Homo sapiens, UniProt P08684); test: as above; type: in vitro ADME; details: isoenzyme (Gentest), 37° C.
# T5 construct: purchased Gentest
# T5 sequence (P08684 whole entry): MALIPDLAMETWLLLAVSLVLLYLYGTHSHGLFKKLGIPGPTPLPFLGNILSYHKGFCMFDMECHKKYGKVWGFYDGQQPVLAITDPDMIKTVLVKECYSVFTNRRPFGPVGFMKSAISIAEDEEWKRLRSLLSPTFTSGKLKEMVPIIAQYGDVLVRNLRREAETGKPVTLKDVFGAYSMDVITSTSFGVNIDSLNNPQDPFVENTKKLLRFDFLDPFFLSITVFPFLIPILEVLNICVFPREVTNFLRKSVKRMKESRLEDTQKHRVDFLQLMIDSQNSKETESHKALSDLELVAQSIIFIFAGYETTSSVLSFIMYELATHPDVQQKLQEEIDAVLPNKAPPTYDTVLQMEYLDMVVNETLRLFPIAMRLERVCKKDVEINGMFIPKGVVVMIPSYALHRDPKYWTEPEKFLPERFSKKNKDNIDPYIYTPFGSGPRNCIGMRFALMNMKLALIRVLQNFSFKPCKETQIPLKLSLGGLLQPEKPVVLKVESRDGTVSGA
# Protocol: as §3
# The individual isoenzymes (Gentest) and the respective substrates were incubated in 96 well plates in buffer containing […] at 37° C. in the presence or absence of the compound under investigation. […] The degree of inhibition of each individual isoenzyme by known inhibitors was also assessed as a positive control.
# [10] = system: Candida albicans; test: Mouse model of systemic candidiasis, survival; type: in vivo, CD1 mice; details: for Average survival (days) ± S.D.: observed until day 30
# Protocol: Experiment C: Study of the Efficacy of Compounds of the Formula (I) in a Mouse Model of Systemic Candidiasis.
# The C. albicans isolate was cultured for 24 h in yeast dextrose broth. The blastospores were recovered by centrifugation, repeatedly washed in sterile saline solution and the inoculum adjusted to the desired concentration. The inoculum was verified by a subsequent count of CFU/ml on Sabouraud plates.
# The mice were then inoculated intravenously (0.2 ml/mouse).
# 24 hours after inoculation with C. albicans, the animals were randomised into the following treatment groups (10 mice/group): • 1. […] Compound under investigation: 50 mg/kg/day (two 25 mg/kg treatments twice daily at 12 hour intervals) • 3. Compound under investigation; 10 mg/kg/day (two 5 mg/kg treatments twice daily at 12 hour intervals) • 4. Control (placebo)
# The compounds were administered orally (suspension in PEG 200, 0.2 ml/mouse) for 10 consecutive days and the animals were observed until day 30. The survival curves between the various treatment groups and between these groups and the control group were evaluated using the Kaplan-Meier method.
# [11] = 10 mg/kg/day orally (5 mg/kg twice daily) for 10 days
# [12] = 50 mg/kg/day orally (25 mg/kg twice daily) for 10 days
substance,measurement,setting,value
"cis(±)-4-{4-[4-{4-[2-(pyridin-2-yl)-2-(1H-1,2,4-triazol-1-ylmethyl)-1,3-dioxolan-4-yl-methoxy]phenyl}-1-piperazinyl]-phenyl}-2-(1-(R,S)methylpropyl)-2,4-dihydro-3H-1,2,4-triazol-3-one [Example 9]",IC50 (minimum concentration to bring about 50% inhibition),[1]; Candida albicans strain 21,39 mg/mL
same,IC50 (minimum concentration to bring about 50% inhibition),[1]; Candida albicans strain gen-45,≦0.03 mg/ml
same,IC50 (minimum concentration to bring about 50% inhibition),[2],1 mg/mL
same,IC50 (minimum concentration to bring about 50% inhibition),[3],≦0.03 mg/ml
same,IC50 (minimum concentration to bring about 50% inhibition),[4]; Aspergillus fumigatus strain 34,0.25
same,IC50 (minimum concentration to bring about 50% inhibition),[4]; Aspergillus fumigatus strain 99-2135,0.25
same,IC50,[5],> 100 µM
same,IC50,[6],40.7 ± 12.7 µM
same,IC50,[7],54.1 ± 5.2 µM
same,IC50,[8],> 100 µM
same,IC50,[9],0.22 ± 0.05 µM
same,Surviving mice 21 days after infection,[10]; [11],0%
same,Average survival (days) ± S.D.,[10]; [11],6.6 ± 0.8 days
same,Surviving mice 21 days after infection,[10]; [12],10%
same,Average survival (days) ± S.D.,[10]; [12],9.1 ± 1.5 days
